Assay results published in patent EP4796130A1, “ANTI-TISSUE FACTOR ANTIBODY-DRUG CONJUGATE COMPRISING CAMPTOTHECIN DERIVATIVE” (Celltrion, Inc., priority 2023, dated 2025).
Several values for one entry are separate records, joined by “and”; a condition that tells them apart may be missing. Equal values may be shown once.

How the values were obtained:
[1] = test system: MCF-7 (a breast cancer cell line); assay type: cell-based; settings: 6 days incubation
[2] = test system: KYSE520 (human esophageal cancer xenograft model); experiment: In vivo antitumor efficacy, KYSE520 xenograft model; parameters: species or system BALB/c nude mice; settings: for Tumor Volume / Tumor Weights on Day 35: mean ± SEM; for T/Cweight / TGI: day 35 vs control group G1; for T/C: tumor volume on day 35 vs control group G1
[3] = test system: HPAFII (human pancreatic cancer xenograft model); experiment: In vivo antitumor efficacy, HPAFII xenograft model; parameters: species or system CB17 SCID mice; settings: for Tumor Volume / Tumor Weights on Day 28: mean ± SEM; for T/Cweight / TGI: day 28 vs control group G1; for T/C: tumor volume on day 28 vs control group G1
[4] = one mouse in G5 (3 mg/kg i.v. QW x 3 weeks); day 18 after start of treatment; autopsied, no abnormalities found
Source text: Animal body weights were regularly monitored as an indirect measure of toxicity. […]

Tivdak: ADC in which MMAE is conjugated to Tisotumab; purchased from Jupiter Research Service LLC; DAR 4
IC50 [1]: 442 nM
Tumor Volume ([2]; 1 mg/kg i.v. QW x 3 weeks, day 0): 175 ± 8 mm^3
Tumor Volume ([2]; 1 mg/kg i.v. QW x 3 weeks, day 4): 279 ± 20 mm^3
Tumor Volume ([2]; 1 mg/kg i.v. QW x 3 weeks, day 7): 360 ± 29 mm^3
Tumor Volume ([2]; 1 mg/kg i.v. QW x 3 weeks, day 11): 489 ± 37 mm^3
Tumor Volume ([2]; 1 mg/kg i.v. QW x 3 weeks, day 14): 672 ± 51 mm^3
Tumor Volume ([2]; 1 mg/kg i.v. QW x 3 weeks, day 18): 771 ± 64 mm^3
Tumor Volume ([2]; 1 mg/kg i.v. QW x 3 weeks, day 21): 865 ± 75 mm^3
Tumor Volume ([2]; 1 mg/kg i.v. QW x 3 weeks, day 25): 1,168 ± 101 mm^3
Tumor Volume ([2]; 1 mg/kg i.v. QW x 3 weeks, day 28): 1,497 ± 121 mm^3
Tumor Volume ([2]; 1 mg/kg i.v. QW x 3 weeks, day 32): 1,634 ± 126 mm^3
Tumor Volume ([2]; 1 mg/kg i.v. QW x 3 weeks, day 35): 1,893 ± 166 mm^3
T/Cweight ([2]; 1 mg/kg i.v. QW x 3 weeks): 86.67%
TGI ([2]; 1 mg/kg i.v. QW x 3 weeks): 13.03%
Tumor Weights on Day 35 ([2]; 1 mg/kg i.v. QW x 3 weeks): 1.869 ± 0.138 g
T/C ([2]; 1 mg/kg i.v. QW x 3 weeks): 88.03%
Tumor Volume ([2]; 3 mg/kg i.v. QW x 3 weeks, day 0): 175 ± 8 mm^3
Tumor Volume ([2]; 3 mg/kg i.v. QW x 3 weeks, day 4): 241 ± 23 mm^3
Tumor Volume ([2]; 3 mg/kg i.v. QW x 3 weeks, day 7): 279 ± 24 mm^3
Tumor Volume ([2]; 3 mg/kg i.v. QW x 3 weeks, day 11): 281 ± 31 mm^3
Tumor Volume ([2]; 3 mg/kg i.v. QW x 3 weeks, day 14): 270 ± 31 mm^3
Tumor Volume ([2]; 3 mg/kg i.v. QW x 3 weeks, day 18): 174 ± 17 mm^3
Tumor Volume ([2]; 3 mg/kg i.v. QW x 3 weeks, day 21): 154 ± 17 (n = 9)^c mm^3
Tumor Volume ([2]; 3 mg/kg i.v. QW x 3 weeks, day 25): 142 ± 15(n = 9) mm^3
Tumor Volume ([2]; 3 mg/kg i.v. QW x 3 weeks, day 28): 129 ± 16 (n = 9) mm^3
Tumor Volume ([2]; 3 mg/kg i.v. QW x 3 weeks, day 32): 115 ± 16(n = 9) mm^3
Tumor Volume ([2]; 3 mg/kg i.v. QW x 3 weeks, day 35): 99 mm^3 and 99 ± 14 (n = 9) mm^3 and 99 ± 14 mm^3
T/Cweight ([2]; 3 mg/kg i.v. QW x 3 weeks): 4.12%
TGI ([2]; 3 mg/kg i.v. QW x 3 weeks): 103.89%
Tumor Weights on Day 35 ([2]; 3 mg/kg i.v. QW x 3 weeks): 0.089 ± 0.013 g
T/C ([2]; 3 mg/kg i.v. QW x 3 weeks): 4.58%
Tumor Volume ([2]; 10 mg/kg i.v. QW x 3 weeks, day 0): 175 ± 8 mm^3
Tumor Volume ([2]; 10 mg/kg i.v. QW x 3 weeks, day 4): 243 ± 22 mm^3
Tumor Volume ([2]; 10 mg/kg i.v. QW x 3 weeks, day 7): 259 ± 24 mm^3
Tumor Volume ([2]; 10 mg/kg i.v. QW x 3 weeks, day 11): 234 ± 23 mm^3
Tumor Volume ([2]; 10 mg/kg i.v. QW x 3 weeks, day 14): 196 ± 16 mm^3
Tumor Volume ([2]; 10 mg/kg i.v. QW x 3 weeks, day 18): 122 ± 11 mm^3
Tumor Volume ([2]; 10 mg/kg i.v. QW x 3 weeks, day 21): 101 ± 7 mm^3
Tumor Volume ([2]; 10 mg/kg i.v. QW x 3 weeks, day 25): 88 ± 7 mm^3
Tumor Volume ([2]; 10 mg/kg i.v. QW x 3 weeks, day 28): 69 ± 5 mm^3
Tumor Volume ([2]; 10 mg/kg i.v. QW x 3 weeks, day 32): 58 ± 5 mm^3
Tumor Volume ([2]; 10 mg/kg i.v. QW x 3 weeks, day 35): 45 mm^3 and 45 ± 6 mm^3
T/Cweight ([2]; 10 mg/kg i.v. QW x 3 weeks): 1.93%
TGI ([2]; 10 mg/kg i.v. QW x 3 weeks): 106.62%
Tumor Weights on Day 35 ([2]; 10 mg/kg i.v. QW x 3 weeks): 0.042 ± 0.004 g
T/C ([2]; 10 mg/kg i.v. QW x 3 weeks): 2.08%
Tumor Volume ([3]; 0.3 mg/kg i.v. QW × 3, day 0): 235 ± 17 mm^3
Tumor Volume ([3]; 0.3 mg/kg i.v. QW × 3, day 4): 313 ± 34 mm^3
Tumor Volume ([3]; 0.3 mg/kg i.v. QW × 3, day 7): 361 ± 49 mm^3
Tumor Volume ([3]; 0.3 mg/kg i.v. QW × 3, day 11): 476 ± 64 mm^3
Tumor Volume ([3]; 0.3 mg/kg i.v. QW × 3, day 14): 576 ± 69 mm^3
Tumor Volume ([3]; 0.3 mg/kg i.v. QW × 3, day 18): 737 ± 91 mm^3
Tumor Volume ([3]; 0.3 mg/kg i.v. QW × 3, day 21): 934 ± 113 mm^3
Tumor Volume ([3]; 0.3 mg/kg i.v. QW × 3, day 25): 1,219 ± 141 mm^3
Tumor Volume ([3]; 0.3 mg/kg i.v. QW × 3, day 28): 1,607 ± 144 mm^3
T/Cweight ([3]; 0.3 mg/kg i.v. QW × 3): 68.36%
TGI ([3]; 0.3 mg/kg i.v. QW × 3): 35.24%
Tumor Weights on Day 28 ([3]; 0.3 mg/kg i.v. QW × 3): 1.461 ± 0.146 g
T/C ([3]; 0.3 mg/kg i.v. QW × 3): 68.29%
Tumor Volume ([3]; 1 mg/kg i.v. QW × 1, day 0): 235 ± 17 mm^3
Tumor Volume ([3]; 1 mg/kg i.v. QW × 1, day 4): 217 ± 16 mm^3
Tumor Volume ([3]; 1 mg/kg i.v. QW × 1, day 7): 141 ± 16 mm^3
Tumor Volume ([3]; 1 mg/kg i.v. QW × 1, day 11): 87 ± 9 mm^3
Tumor Volume ([3]; 1 mg/kg i.v. QW × 1, day 14): 103 ± 14 mm^3
Tumor Volume ([3]; 1 mg/kg i.v. QW × 1, day 18): 161 ± 31 mm^3
Tumor Volume ([3]; 1 mg/kg i.v. QW × 1, day 21): 213 ± 34 mm^3
Tumor Volume ([3]; 1 mg/kg i.v. QW × 1, day 25): 344 ± 49 mm^3
Tumor Volume ([3]; 1 mg/kg i.v. QW × 1, day 28): 486 mm^3 and 486 ± 73 mm^3
T/Cweight ([3]; 1 mg/kg i.v. QW × 1): 21.23%
TGI ([3]; 1 mg/kg i.v. QW × 1): 88.15%
Tumor Weights on Day 28 ([3]; 1 mg/kg i.v. QW × 1): 0.454 ± 0.088 g
T/C ([3]; 1 mg/kg i.v. QW × 1): 20.67%
Tumor Volume ([3]; 1 mg/kg i.v. QW × 3, day 0): 235 ± 17 mm^3
Tumor Volume ([3]; 1 mg/kg i.v. QW × 3, day 4): 190 ± 12 mm^3
Tumor Volume ([3]; 1 mg/kg i.v. QW × 3, day 7): 124 ± 11 mm^3
Tumor Volume ([3]; 1 mg/kg i.v. QW × 3, day 11): 85 ± 9 mm^3
Tumor Volume ([3]; 1 mg/kg i.v. QW × 3, day 14): 70 ± 8 mm^3
Tumor Volume ([3]; 1 mg/kg i.v. QW × 3, day 18): 54 ± 6 mm^3
Tumor Volume ([3]; 1 mg/kg i.v. QW × 3, day 21): 40 ± 4 mm^3
Tumor Volume ([3]; 1 mg/kg i.v. QW × 3, day 25): 33 ± 4 mm^3
Tumor Volume ([3]; 1 mg/kg i.v. QW × 3, day 28): 26 mm^3 and 26 ± 3 mm^3
T/Cweight ([3]; 1 mg/kg i.v. QW × 3): 1.03%
TGI ([3]; 1 mg/kg i.v. QW × 3): 109.91%
Tumor Weights on Day 28 ([3]; 1 mg/kg i.v. QW × 3): 0.022 ± 0.003 g
T/C ([3]; 1 mg/kg i.v. QW × 3): 1.09%
Tumor Volume ([3]; 3 mg/kg i.v. QW × 1, day 0): 235 ± 17 mm^3
Tumor Volume ([3]; 3 mg/kg i.v. QW × 1, day 4): 216 ± 19 mm^3
Tumor Volume ([3]; 3 mg/kg i.v. QW × 1, day 7): 128 ± 10 mm^3
Tumor Volume ([3]; 3 mg/kg i.v. QW × 1, day 11): 69 ± 8 mm^3
Tumor Volume ([3]; 3 mg/kg i.v. QW × 1, day 14): 56 ± 4 mm^3
Tumor Volume ([3]; 3 mg/kg i.v. QW × 1, day 18): 39 ± 3 mm^3
Tumor Volume ([3]; 3 mg/kg i.v. QW × 1, day 21): 30 ± 2 mm^3
Tumor Volume ([3]; 3 mg/kg i.v. QW × 1, day 25): 26 ± 2 mm^3
Tumor Volume ([3]; 3 mg/kg i.v. QW × 1, day 28): 19 mm^3 and 19 ± 1 mm^3
T/Cweight ([3]; 3 mg/kg i.v. QW × 1): 0.54%
TGI ([3]; 3 mg/kg i.v. QW × 1): 110.22%
Tumor Weights on Day 28 ([3]; 3 mg/kg i.v. QW × 1): 0.012 ± 0.001 g
T/C ([3]; 3 mg/kg i.v. QW × 1): 0.80%
body weight loss [4]: more than 20%
